BindingDB's records for patent US20250313563 (The Broad Institute, 2025)
pIC50: −log10 of the molar value. “And” between values parts separate entries of the source, which are not always exact repeats. Equal entries are not always repeated.

Columns and labels:
[1] = target: Glycogen synthase kinase-3 beta (Homo sapiens, UniProt P49841); test: TR-FRET Assay
How it was run: (§1)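 Kinase activity, measured after a 30-minute compound preincubation, was stopped with EDTA and quantified by TR-FRET using a Tb-labelled pSer641 antibody paired with streptavidin-d2.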

[2] = target: Glycogen synthase kinase-3 alpha (Homo sapiens, UniProt P49840); test: TR-FRET Assay
Chain of Glycogen synthase kinase-3 alpha (P49840 whole entry): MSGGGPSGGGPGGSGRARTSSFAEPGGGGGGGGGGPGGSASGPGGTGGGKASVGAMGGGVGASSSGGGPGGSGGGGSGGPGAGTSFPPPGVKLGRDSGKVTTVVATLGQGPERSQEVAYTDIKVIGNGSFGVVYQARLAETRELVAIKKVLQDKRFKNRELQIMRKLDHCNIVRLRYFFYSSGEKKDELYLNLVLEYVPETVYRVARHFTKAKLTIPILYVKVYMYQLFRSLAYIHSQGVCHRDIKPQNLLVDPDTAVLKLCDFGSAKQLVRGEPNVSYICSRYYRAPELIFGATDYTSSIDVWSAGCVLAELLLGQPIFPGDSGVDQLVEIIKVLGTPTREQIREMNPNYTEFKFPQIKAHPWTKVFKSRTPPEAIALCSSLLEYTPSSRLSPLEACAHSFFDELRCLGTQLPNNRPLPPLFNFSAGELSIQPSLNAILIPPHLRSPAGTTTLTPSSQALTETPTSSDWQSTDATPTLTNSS
How it was run: as §1

Chain of Glycogen synthase kinase-3 beta (P49841 whole entry): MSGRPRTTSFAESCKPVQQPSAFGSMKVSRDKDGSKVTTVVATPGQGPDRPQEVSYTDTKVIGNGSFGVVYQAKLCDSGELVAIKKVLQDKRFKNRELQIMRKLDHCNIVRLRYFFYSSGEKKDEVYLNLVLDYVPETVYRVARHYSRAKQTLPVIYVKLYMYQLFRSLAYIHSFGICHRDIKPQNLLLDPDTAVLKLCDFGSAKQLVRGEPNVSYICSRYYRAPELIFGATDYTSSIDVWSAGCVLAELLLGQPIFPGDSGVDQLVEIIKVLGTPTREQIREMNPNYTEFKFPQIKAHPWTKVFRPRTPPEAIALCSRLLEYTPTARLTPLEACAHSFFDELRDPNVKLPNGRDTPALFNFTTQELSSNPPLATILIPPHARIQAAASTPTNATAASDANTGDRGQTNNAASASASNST

Row | Structure (SMILES) | pIC50 [1] | pIC50 [2]
1 | CC1CC(=O)C2=C(C1)NC1=C(CN=N1)C21CCOCC1 (stereo unspecified) [US20250313563, Compound 884112] | 6.00 to 7.00 | 6.00 to 7.00
2 | CC[C@]1(c2cccc(-c3cnn(C(C)(C)C)c3)c2)C2=CN=NC2NC2=C1C(=O)NC(C)(C)C2 (stereo partly specified) [US20250313563, Compound 949107] | < 5.30 | < 5.30
3 | CC[C@]1(c2cccc(-c3cnn(C)c3)c2)C2=C(CC(C)(C)NC2=O)NC2N=NC(C(F)(F)F)=C21 (stereo partly specified) [US20250313563, Compound 947871] | 6.00 to 7.00 | > 7.00
4 | CC[C@@]1(c2cccc(-c3ccnc(C)c3OC)c2)C2=CN=NC2NC2=C1C(=O)CC(C)(C)C2 (stereo partly specified) [US20250313563, Compound 945997] | > 7.00 and 5.30 to 6.00 | > 7.00 and 6.00 to 7.00
5 | CC1(C)CC(=O)C2=C(C1)NC1=C(CN=N1)[C@@]21CCOC2(CCC2)C1 [US20250313563, Compound 897755] | 5.30 to 6.00 | 5.30 to 6.00
6 | CC[C@@]1(c2cccc(-c3cnn(-c4ccccc4)c3C(F)(F)F)c2)C2=CN=NC2NC2=C1C(=O)NC(C)(C)C2 (stereo partly specified) [US20250313563, Compound 951837] | 6.00 to 7.00 | 6.00 to 7.00
7 | CC(C)(C)CC1N=NC2=C1[C@](C)(c1cccc(S(=O)(=O)N3CCCC3)c1)C1=C(CC(C)(C)NC1=O)N2 (stereo partly specified) [US20250313563, Compound 108791] | 6.00 to 7.00 | 5.30 to 6.00
8 | CCC1(c2cccc(Br)c2)C2=CN=NC2NC2=C1C(=O)NC(C)(C)C2 (stereo unspecified) [US20250313563, Compound 913439] | 6.00 to 7.00 | > 7.00
9 | CC[C@@]1(c2cccc(-c3ccnc(C)c3)c2)C2=CN=NC2NC2=C1C(=O)N[C@@]1(CCOC1)C2 (stereo partly specified) [US20250313563, Compound 948149] | 6.00 to 7.00 | > 7.00
10 | CC[C@]1(c2cccc(C(F)(F)F)c2)C2=CN=NC2NC2=C1C(=O)C[C@@]1(CCNC1=O)C2 (stereo partly specified) [US20250313563, Compound 950332] | < 5.30 | < 5.30
11 | CC1(C)CC(=O)C2=C(C1)NC1=C(CN=N1)C21CN(Cc2cnc3ccccn23)C1 [US20250313563, Compound 932654] | < 5.30 | < 5.30
12 | CC[C@@]1(c2cccc(C(F)(F)F)c2)C2=CN=NC2NC2=C1C(=O)N(C)CC2 (stereo partly specified) [US20250313563, Compound 917283] | < 5.30 | < 5.30
13 | CCC1(c2cccc(N3CCCCC3)c2)C2=CN=NC2NC2=C1C(=O)CC(C)(C)C2 (stereo unspecified) [US20250313563, Compound 801320] | 6.00 to 7.00 | 6.00 to 7.00
14 | COc1cccc(C2(C)C3=C(N=NC3)NC3=C2C(=O)CC(C)(C)C3)c1 (stereo unspecified) [US20250313563, Compound 792342] | 6.00 to 7.00 | 6.00 to 7.00
15 | CCC1(c2cccc(-c3ccnc(C)c3OC)c2)C2=CN=NC2NC2=C1C(=O)CC(C)(C)C2 (stereo unspecified) [US20250313563, Compound 945458] | > 7.00 | > 7.00
16 | CC1(C)CC(=O)C2=C(C1)NC1=C(CN=N1)[C@@]21COC2(CN(C(=O)C(C)(F)F)C2)C1 [US20250313563, Compound 947839] | 6.00 to 7.00 | > 7.00
17 | CC1N=NC2=C1C1(CN(S(=O)(=O)CC3CC3)C1)C1=C(CC(C)(C)CC1=O)N2 (stereo unspecified) [US20250313563, Compound 107828] | 6.00 to 7.00 | > 7.00
18 | CC1(C)CC(=O)C2=C(C1)NC1=C(CN=N1)C21CCN(S(=O)(=O)C2=CN=C3CC=CC=C3C2)CC1 [US20250313563, Compound 947462] | > 7.00 and 5.30 to 6.00 | > 7.00 and 6.00 to 7.00
19 | CC1(C)CC(=O)C2=C(C1)NC1=C(CN=N1)[C@]21C[C@@H](OCc2ccccc2)C1 [US20250313563, Compound 909211] | 6.00 to 7.00 | > 7.00
20 | CCC1(c2cccc(-c3cc(C)ncc3F)c2)C2=CN=NC2NC2=C1C(=O)CC(C)(C)C2 (stereo unspecified) [US20250313563, Compound 917132] | > 7.00 | > 7.00
21 | CCC1(c2cccc(C3=CN=NC3)c2)C2=CN=NC2NC2=C1C(=O)NC(C)(C)C2 (stereo unspecified) [US20250313563, Compound 944022] | 6.00 to 7.00 | > 7.00
22 | CC[C@@]1(c2cccc(-c3ccncc3F)c2)C2=CN=NC2NC2=C1C(=O)NC(C)(C)C2 (stereo partly specified) [US20250313563, Compound 947869] | > 7.00 and 5.30 to 6.00 | > 7.00
23 | CC[C@]1(c2ccccc2)C2=C(CC(C)(C)CC2=O)NC2N=NC(C(F)F)=C21 (stereo partly specified) [US20250313563, Compound 874511] | 6.00 to 7.00 | > 7.00
24 | CC[C@@]1(c2cccc([C@@H]3CCOC3)c2)C2=CN=NC2NC2=C1C(=O)CC(C)(C)C2 (stereo partly specified) [US20250313563, Compound 889565] | 5.30 to 6.00 | 6.00 to 7.00
25 | CCN(c1cccnc1)c1cccc([C@@]2(CC)C3=CN=NC3NC3=C2C(=O)CC(C)(C)C3)c1 (stereo partly specified) [US20250313563, Compound 917088] | 5.30 to 6.00 | 6.00 to 7.00
26 | CC[C@@]1(c2cccc(-c3ccnn3C(C)C)c2)C2=CN=NC2NC2=C1C(=O)CC(C)(C)C2 (stereo partly specified) [US20250313563, Compound 946091] | > 7.00 | > 7.00
27 | CC[C@]1(c2cccc(C3=CN=NC3)c2)C2=C(CC(C)(C)CC2=O)NC2N=NC(C)=C21 (stereo partly specified) [US20250313563, Compound 913044] | 6.00 to 7.00 | 6.00 to 7.00

Row | Structure (SMILES) | pIC50 [1] | pIC50 [2]
28 | CCC1(c2cccc(C(F)(F)F)c2)C2=CN=NC2NC2=C1C(=O)NC(C)(C)C2F (stereo unspecified) [US20250313563, Compound 819622] | 6.00 to 7.00 | > 7.00
29 | CCC1(c2cccc(N3CCOCC3)c2)C2=C(CC(C)(C)NC2=O)NC2N=NC(C)=C21 (stereo unspecified) [US20250313563, Compound 947564] | 6.00 to 7.00 | 6.00 to 7.00
30 | CC[C@@]1(c2cccc(Br)c2)C2=C(C[C@@H](C)CC2=O)NC2N=NC(C(F)(F)F)=C21 (stereo partly specified) [US20250313563, Compound 828849] | 6.00 to 7.00 | 6.00 to 7.00
31 | Cc1ccc(C(=O)N2CC3(C2)CC2(CO3)C3=C(N=NC3)NC3=C2C(=O)CC(C)(C)C3)cc1C (stereo unspecified) [US20250313563, Compound 947286] | > 7.00 | > 7.00
32 | CC[C@]1(c2cccc(N3CCc4ccncc43)c2)C2=CN=NC2NC2=C1C(=O)CC(C)(C)C2 (stereo partly specified) [US20250313563, Compound 912003] | 6.00 to 7.00 | > 7.00
33 | CC[C@]1(c2cccc(CN(C)c3cc(C)cc(C)n3)c2)C2=CN=NC2NC2=C1C(=O)CC(C)(C)C2 (stereo partly specified) [US20250313563, Compound 945615] | < 5.30 | < 5.30
34 | CC1(C)CC(=O)C2=C(C1)NC1=C(CN=N1)C21CCN(S(=O)(=O)c2ccc(F)cc2)CC1 [US20250313563, Compound 893311] | > 7.00 and 5.30 to 6.00 | > 7.00 and 6.00 to 7.00
35 | COc1cccc(S(=O)(=O)N2CCCC3(CC2)C2=CN=NC2NC2=C3C(=O)CC(C)(C)C2)c1 (stereo unspecified) [US20250313563, Compound 917140] | 6.00 to 7.00 | > 7.00
36 | CC[C@@]1(c2cccc(N3CCOCC3)c2)C2=CN=NC2NC2=C1C(=O)CC(C)(C)C2 (stereo partly specified) [US20250313563, Compound 810363] | 6.00 to 7.00 | 6.00 to 7.00
37 | CC[C@@]1(c2cccc(-c3cnn4ccncc34)c2)C2=CN=NC2NC2=C1C(=O)NC(C)(C)C2 (stereo partly specified) [US20250313563, Compound 952565] | 6.00 to 7.00 and < 5.30 | > 7.00 and 5.30 to 6.00
38 | CCC1(c2cccc(-c3ccnc(O)c3)c2)C2=CN=NC2NC2=C1C(=O)CC(C)(C)C2 (stereo unspecified) [US20250313563, Compound 913352] | > 7.00 | > 7.00
39 | CC[C@@]1(c2cccc(-c3ccnc(C)c3)c2)C2=CN=NC2NC2=C1C(=O)[C@@H](F)C(C)(C)C2 (stereo partly specified) [US20250313563, Compound 945475] | 6.00 to 7.00 and < 5.30 | > 7.00 and 5.30 to 6.00
40 | CC[C@@]1(c2cccc(OC(C)C)c2)C2=C(CC(C)(C)CC2=O)NC2N=NC(C(F)(F)F)=C21 (stereo partly specified) [US20250313563, Compound 947872] | 5.30 to 6.00 | 6.00 to 7.00
41 | CC[C@@]1(c2cccc(C(F)(F)F)c2)C2=C(N=NC2)NC2=C1C(=O)NC2 [US20250313563, Compound 917158] | 5.30 to 6.00 | 6.00 to 7.00
42 | CC1(C)CC(=O)C2=C(C1)NC1=C(CN=N1)C21COC2(CN(C(=O)C3CC3)C2)C1 (stereo unspecified) [US20250313563, Compound 947297] | > 7.00 | > 7.00
43 | CC1(C)CC(=O)C2=C(C1)NC1=C(CN=N1)[C@]21COC2(CN(C(=O)[C@@H]3CC3(F)F)C2)C1 [US20250313563, Compound 948219] | > 7.00 and 5.30 to 6.00 | > 7.00 and 6.00 to 7.00
44 | CC[C@]1(c2cccc(C(F)(F)F)c2)C2=CN=NC2NC2=C1C(=O)N(c1ccc(C)cc1)CC2 (stereo partly specified) [US20250313563, Compound 949118] | 6.00 to 7.00 | > 7.00
45 | CCC1(c2cccc(C(F)(F)F)c2)C2=CN=NC2NC2=C1C(=O)N(c1cc(C)n(C)n1)CC2 (stereo unspecified) [US20250313563, Compound 950608] | 5.30 to 6.00 | 6.00 to 7.00
46 | CC[C@]1(c2cccc(-c3cn(C)nc3C)c2)C2=C(CC(C)(C)NC2=O)NC2N=NC(Cl)=C21 (stereo partly specified) [US20250313563, Compound 949329] | < 5.30 | 5.30 to 6.00
47 | CC1(C)CC(=O)C2=C(C1)NC1=C(CN=N1)C21CCN(S(=O)(=O)c2cccc3ncccc23)CC1 [US20250313563, Compound 947469] | > 7.00 | > 7.00
48 | CC[C@]1(c2cccc(C3CN(C(C)=O)C3)c2)C2=CN=NC2NC2=C1C(=O)CC(C)(C)C2 (stereo partly specified) [US20250313563, Compound 949131] | 5.30 to 6.00 | 6.00 to 7.00
49 | CCC1(c2cccc(N(C)c3ccnc(F)c3)c2)C2=CN=NC2NC2=C1C(=O)CC(C)(C)C2 (stereo unspecified) [US20250313563, Compound 917146] | > 7.00 | > 7.00
50 | CC[C@]1(c2cccc(-c3ccnc(C)c3Cl)c2)C2=CN=NC2NC2=C1C(=O)NC(C)(C)C2 (stereo partly specified) [US20250313563, Compound 948369] | < 5.30 | < 5.30
51 | CCC1(c2cccc(-c3ccncc3S(C)(=O)=O)c2)C2=CN=NC2NC2=C1C(=O)CC(C)(C)C2 (stereo unspecified) [US20250313563, Compound 947569] | > 7.00 | > 7.00
52 | O=C1CC(C(F)(F)F)CC2=C1C1(CCOCC1)C1=C(N=NC1)N2 (stereo unspecified) [US20250313563, Compound 889572] | 6.00 to 7.00 | 6.00 to 7.00
53 | CC1(C)CC(=O)C2=C(C1)NC1=C(CN=N1)C2(C)CCc1ccccc1 (stereo unspecified) [US20250313563, Compound 819562] | < 5.30 | 5.30 to 6.00
